Experimental data reported in paper PMC12152147, “DDB1 engagement defines the selectivity of S656 analogs for cyclin K degradation over CDK inhibition” (EMBO Reports, 2025).
Like-named read-outs stand apart in the source and are kept apart here.

What was measured:
CDK1 = molecular target: T1, CDK1 (Homo sapiens, UniProt P06493); test: CDK1 in vitro kinase activity, single concentration 1 μM; format: biochemical; conditions: single concentration 1 μM
T1 construct: purchased BPS Bioscience 79597
Experimental: (§1) Kinase activity was assessed using the kinase assay kits from BPS Bioscience for CDK1, CDK9 and CDK12 with Kinase Glo MAX in duplicates. Compounds were tested at a single concentration of 1 μM for CDK1 and CDK9 activity, and in a dilution ranging from 0.64 nM to 50 μM for CDK12 activity. Chemiluminescence was read using the Neo Synergy BioTek plate reader.

cyclin KeGFP = test: Cyclin KeGFP reporter system (eGFP/mCherry MFI by flow cytometry);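 also: 10 μM compound for 3 h relative to DMSO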; format: cell-based, H. sapiens; conditions: cyclin K-eGFP reporter
Experimental: We used the cyclin KeGFP reporter system previously described (Słabicki et al, [2020]). Lentiviral vector (Addgene plasmid #169930) was used to infect OCI-AML5 at a MOI of 5 and were selected with puromycin. Cells were seeded in methylcellulose and let grown as colonies for 10 days. Colonies were isolated, expanded and selected based on cyclin KeGFP fluorescence in presence and absence of cyclin K degrader molecules. Selected G7 clone was used for all reported experiments. Fluorescent signal of cyclin KeGFP and mCherry were quantified by flow cytometry (BD LSRII) in each condition and the geometric mean fluorescence intensity (MFI) were calculated using FlowJo (BD Biosciences). The ratio of eGFP to mCherry was normalized to DMSO-treated cells.

[1] = test system: OCI-AML5 cells expressing shRNAs targeting CDK1, 2, 4, 7, 9, cyclin K; test: Dose response in OCI-AML5 expressing shRNAs targeting CDK1, 2, 4, 7, 9, cyclin K or control; format: cell-based, H. sapiens; conditions: for Class: class from shRNA IC50 profile and cyclin K-eGFP degradation; for class based on cellular selectivity: IC50 in shRNA OCI-AML5 cells and cyclin KeGFP degradation
CDK9/CyclinT = molecular target: T2, CDK9/CyclinT (Homo sapiens, UniProt P50750); test: CDK9/CyclinT in vitro kinase activity, single concentration 1 μM; format: biochemical; conditions: single concentration 1 μM
T2 construct: purchased BPS Bioscience 79628
T2 sequence (P50750 whole entry): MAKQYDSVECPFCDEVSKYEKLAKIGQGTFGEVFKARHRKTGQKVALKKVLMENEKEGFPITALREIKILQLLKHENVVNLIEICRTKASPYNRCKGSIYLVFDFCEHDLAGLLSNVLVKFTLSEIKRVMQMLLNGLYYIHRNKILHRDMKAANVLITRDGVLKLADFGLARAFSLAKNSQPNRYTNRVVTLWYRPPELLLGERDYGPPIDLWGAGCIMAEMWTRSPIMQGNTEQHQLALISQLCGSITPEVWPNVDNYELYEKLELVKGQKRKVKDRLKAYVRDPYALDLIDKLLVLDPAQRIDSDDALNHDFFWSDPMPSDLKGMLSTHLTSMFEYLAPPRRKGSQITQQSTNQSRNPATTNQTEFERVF
T2 sequence (O60563 whole entry partner): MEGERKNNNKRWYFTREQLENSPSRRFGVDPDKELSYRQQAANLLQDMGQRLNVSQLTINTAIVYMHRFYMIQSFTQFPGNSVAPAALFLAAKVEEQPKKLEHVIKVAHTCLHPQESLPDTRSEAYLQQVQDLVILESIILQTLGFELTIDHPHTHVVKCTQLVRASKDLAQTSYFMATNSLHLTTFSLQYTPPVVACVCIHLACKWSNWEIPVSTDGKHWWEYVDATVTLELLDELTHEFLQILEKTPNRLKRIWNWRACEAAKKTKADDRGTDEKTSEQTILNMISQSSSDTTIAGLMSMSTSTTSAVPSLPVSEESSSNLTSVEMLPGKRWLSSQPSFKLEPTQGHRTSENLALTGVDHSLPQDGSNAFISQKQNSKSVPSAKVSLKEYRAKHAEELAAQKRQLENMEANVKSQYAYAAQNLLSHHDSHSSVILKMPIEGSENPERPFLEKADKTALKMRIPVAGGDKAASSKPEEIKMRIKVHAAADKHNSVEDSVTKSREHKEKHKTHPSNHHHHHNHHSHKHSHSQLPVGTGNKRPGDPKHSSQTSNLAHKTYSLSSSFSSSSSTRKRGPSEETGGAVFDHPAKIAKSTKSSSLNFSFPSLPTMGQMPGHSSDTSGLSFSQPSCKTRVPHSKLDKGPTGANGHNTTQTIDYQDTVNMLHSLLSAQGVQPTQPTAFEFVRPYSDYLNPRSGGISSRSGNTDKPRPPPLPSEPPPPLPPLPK
Experimental: as §1

OCI-AML5 cells = test: Dose-response proliferative assay in OCI-AML5 (4 days, CellTiterGlo); format: cell-based, H. sapiens; conditions: read-out: IC50 in AML5
Experimental: Cell lines were purchased from the ATCC or donated from collaborators. OCI-AML5 cell line was cultured in αMEM, 10% heat-inactivated FBS supplemented with 10 ng/mL GM-CSF, OCI-AML1, U2OS and HEK293T cell lines in DMEM, 10% heat-inactivated FBS. Cells were maintained at 37 °C in 5% CO2 atmosphere.
Dose-response assays in primary AML specimens were performed as in chemical screen (see above) with the exception that compounds were tested in serial dilution (8 dilutions, 1:4, 10 μM down to 0.5 nM). Dose-response assays in OCI-AML5 cell line were conducted similarly with the following modifications: 300 cells per well were seeded in 50 μL of cell line media and cell viability was evaluated after 4 days in culture.

[2] = test system: OCI-AML5 cells expressing shRNA targeting CUL4A or CUL4B; test: Dose response in OCI-AML5 expressing shRNAs targeting CUL4A, CUL4B or control; format: cell-based, H. sapiens; conditions: ratio of IC50 in shCUL4A vs shCTRL OCI-AML5 cells
[3] = Homo sapiens, OCI-AML-5, OCI-AML5 expressing shRNA CCNK (cyclin K), read-out: IC50 shRNA CCNK
[4] = Homo sapiens, OCI-AML-5, OCI-AML5 expressing shRNA CDK1, read-out: IC50 shRNA CDK1
[5] = Homo sapiens, OCI-AML-5, OCI-AML5 expressing shRNA CDK2, read-out: IC50 shRNA CDK2
[6] = Homo sapiens, OCI-AML-5, OCI-AML5 expressing shRNA CDK4, read-out: IC50 shRNA CDK4
[7] = Homo sapiens, OCI-AML-5, OCI-AML5 expressing shRNA CDK7, read-out: IC50 shRNA CDK7
[8] = Homo sapiens, OCI-AML-5, OCI-AML5 expressing shRNA CDK9, read-out: IC50 shRNA CDK9
[9] = Homo sapiens, OCI-AML-5, OCI-AML5 cells

T1 sequence (P06493 whole entry): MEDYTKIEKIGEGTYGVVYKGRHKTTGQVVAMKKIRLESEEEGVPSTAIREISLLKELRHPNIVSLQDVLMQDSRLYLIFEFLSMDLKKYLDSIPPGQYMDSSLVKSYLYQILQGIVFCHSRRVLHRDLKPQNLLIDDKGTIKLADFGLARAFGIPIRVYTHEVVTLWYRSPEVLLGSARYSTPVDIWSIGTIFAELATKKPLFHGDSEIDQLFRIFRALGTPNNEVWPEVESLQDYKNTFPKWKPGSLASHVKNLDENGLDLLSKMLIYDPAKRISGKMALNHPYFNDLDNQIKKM
T1 sequence (P14635 whole entry partner): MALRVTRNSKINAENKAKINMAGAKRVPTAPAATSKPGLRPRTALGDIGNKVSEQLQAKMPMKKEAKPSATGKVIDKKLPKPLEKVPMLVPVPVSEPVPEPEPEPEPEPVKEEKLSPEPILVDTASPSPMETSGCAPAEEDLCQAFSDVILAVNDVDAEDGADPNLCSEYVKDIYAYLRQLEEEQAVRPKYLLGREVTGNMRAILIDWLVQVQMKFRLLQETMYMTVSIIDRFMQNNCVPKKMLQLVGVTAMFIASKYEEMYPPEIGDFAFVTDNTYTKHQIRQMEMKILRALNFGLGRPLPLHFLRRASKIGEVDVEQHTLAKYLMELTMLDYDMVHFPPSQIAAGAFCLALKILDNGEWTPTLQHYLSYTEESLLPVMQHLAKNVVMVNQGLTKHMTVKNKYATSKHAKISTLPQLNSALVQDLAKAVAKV

Compound | inhibition at 1 µM (CDK1) | % degradation cyclin K-eGFP (cyclin KeGFP) | IC50 [1, 3] | IC50 [1, 4] | IC50 [1, 5] | IC50 [1, 6] | IC50 [1, 7] | IC50 [1, 8] | Class [1] | inhibition at 1 µM (CDK9/CyclinT) | IC50 (OCI-AML5 cells; [9]) | Ratio shCUL4A/shCTRL [2] | class based on cellular selectivity [1] | further results
[N-]=[N+]=Nc1ccc(CC(=O)Nc2ncc(SCc3cccnc3)s2)cc1 [UOM-005062] | 63% | 45% | 0.921 µM | 1.28 µM | 2.31 µM | 2.62 µM | 2.52 µM | 1.49 µM | mixed 1-2 | 99% | 2.18 µM | 1.35 | – | –
O=C(Cc1ccccc1)Nc1ncc(SCc2cccnc2)s1 [UOM-005190] | – | 26% | – | – | – | – | – | – | 2 | – | – | 1.19 | – | % CDK1 inhibition (CDK1): 79%; IC50 ([1]; OCI-AML5 expressing shRNA CCNK (cyclin K), read-out: IC50 shRNA CCNK): 2.53 µM; IC50 ([1]; OCI-AML5 expressing shRNA CDK1, read-out: IC50 shRNA CDK1): 0.815 µM; IC50 ([1]; OCI-AML5 expressing shRNA CDK2, read-out: IC50 shRNA CDK2): 2.69 µM; IC50 ([1]; OCI-AML5 expressing shRNA CDK4, read-out: IC50 shRNA CDK4): 3.28 µM; IC50 ([1]; OCI-AML5 expressing shRNA CDK7, read-out: IC50 shRNA CDK7): 2.9 µM; IC50 ([1]; OCI-AML5 expressing shRNA CDK9, read-out: IC50 shRNA CDK9): 1.66 µM; % CDK9 inhibition (CDK9/CyclinT): 24%; IC50 (OCI-AML5 cells; OCI-AML5 cells): 2.38 µM
O=C(Cc1ccc(F)cc1)Nc1ncc(SCc2cccnc2)s1 [UOM-005197] | 59% | 24% | 3.58 µM | 1.35 µM | 2.69 µM | 3.4 µM | 3.36 µM | 1.81 µM | 2 | 57% | 2.79 µM | 1.15 | Class II | –
O=C(Cc1ccc(Cl)cc1)Nc1ncc(SCc2cccnc2)s1 [UOM-005198] | 51% | 33% | 3.04 µM | 1.3 µM | 2.76 µM | 3.43 µM | 3.43 µM | 2.1 µM | 2 | 32% | 2.92 µM | 1.12 | Class II | –
O=C(Cc1ccc(Br)cc1)Nc1ncc(SCc2cccnc2)s1 [UOM-005199] | 60% | 64% | 1.5 µM | 1.18 µM | 2.94 µM | 2.83 µM | 2.8 µM | 1.78 µM | mixed 1-2 | 100% | 2.56 µM | 0.67 | – | –
O=C(Cc1ccc(I)cc1)Nc1ncc(SCc2cccnc2)s1 [UOM-005200] | 87% | 77% | 0.368 µM | 1.07 µM | 1.28 µM | 1.11 µM | 1.51 µM | 1.02 µM | 1 | 62% | 1.06 µM | 2.36 | Class I (effective cyclin K MGDs (decreased IC50 in cyclin K depleted cells only, and >65% degradation of cyclin KeGFP)) | –
COc1ccc(CC(=O)Nc2ncc(SCc3cccnc3)s2)cc1 [UOM-005201] | 69% | 55% | 2.01 µM | 1.03 µM | 2.88 µM | 3.38 µM | 3.11 µM | 1.39 µM | 2 | 54% | 3 µM | 0.99 | Class II | –
Cc1ccc(CC(=O)Nc2ncc(SCc3cccnc3)s2)cc1 [UOM-005202] | 65% | 28% | 2.94 µM | 0.929 µM | 2.83 µM | 3.72 µM | 2.86 µM | 1.8 µM | 2 | 50% | 3.4 µM | 0.7 | – | –
CC(C)(C)OC(=O)N1CCC(CC(=O)Nc2ncc(SCc3cccnc3)s2)C1 (centres unmarked) [UOM-005226] | 46% | 2% | > 10 µM | 6.25 µM | > 10 µM | > 10 µM | > 10 µM | > 10 µM | 2 | 39% | > 10 µM | 1.24 | – | –
O=C(Cc1cccnc1)Nc1ncc(SCc2cccnc2)s1 [UOM-005249] | 100% | 10% | 1.85 µM | 0.908 µM | 2.32 µM | 2.28 µM | 2.24 µM | 1.18 µM | 2 | 100% | 2.45 µM | 0.98 | Class II | –
O=C(Cc1ccc2ccccc2c1)Nc1ncc(SCc2cccnc2)s1 [UOM-005428] | 70% | 80% | 0.135 µM | 0.502 µM | 0.544 µM | 0.509 µM | 0.578 µM | 0.369 µM | 1 | 67% | 0.361 µM | 2.81 | Class I (effective cyclin K MGDs (decreased IC50 in cyclin K depleted cells only, and >65% degradation of cyclin KeGFP)) | –
O=C(Cc1cnccn1)Nc1ncc(SCc2cccnc2)s1 [UOM-005482] | 34% | 0% | > 10 µM | 3.22 µM | > 10 µM | > 10 µM | > 10 µM | 5.92 µM | 2 | 20% | > 10 µM | – | – | –
